Data reported in patent US4772625A, “1,3-dioxan-5-yl-hexenoic acids” (Imperial Chemical Industries PLC, priority 1985, dated 1988).

Experiments:
[1] = test system: U46619 induced bronchoconstriction; assay: Test (c): U46619 induced bronchoconstriction, Konzett-Rossler anaesthetised guinea-pig model; format: in vivo; conditions: 2 hours after oral dosing at 0.05 mg/kg
Description: (c) a bronchoconstriction test involving measuring the inhibition by a test compound of the bronchoconstriction induced in the Konzett-Rossler, anaesthetised guinea-pig model (as modified by Collier and James, Brit. J. Pharmacol., 1967, 30, 283-307) by intravenous administration of the TXA2 mimetic agent, U46619 and involving:
(i) obtaining a cumulative dose-response curve to U46619 induced bronchoconstriction by intravenous administration of constant volumes of increasing concentrations of U46619 (0.2-4 μg/kg) in physiological saline solution and expressing bronchoconstriction as the maximum of that theoretically obtainable with no air flow to the test animal;
(ii) generating a cumulative dose-response curve to U46619 induced bronchoconstriction at 30 minute intervals for 3 hours after oral dosing of test compound; and
(iii) calculating a dose-ratio for the test compound (that is the ratio of concentration of U46619 required to cause 50% bronchoconstriction in the presence and absence of test compound) indicating the potency of TXA2 antagonism.
(§1) Using the above test procedures (a)-(c), the following representative results have been obtained with the compounds of formula I (X=Y=H) wherein (i) R is isopropyl, (ii) R is t-butyl; or (iii) R is sec-butyl, respectively: […]

[2] = molecular target: T1, U46619 stimulated platelet aggregation (Homo sapiens, UniProt P21731); assay: Test (b): blood platelet aggregation test, human citrated platelet-rich plasma, U46619 stimulated; format: cell-based
T1 construct: aggregating human, citrated, platelet-rich plasma; from tissue; host or cells: human citrated platelet-rich plasma (platelets)
T1 sequence (P21731 1-343): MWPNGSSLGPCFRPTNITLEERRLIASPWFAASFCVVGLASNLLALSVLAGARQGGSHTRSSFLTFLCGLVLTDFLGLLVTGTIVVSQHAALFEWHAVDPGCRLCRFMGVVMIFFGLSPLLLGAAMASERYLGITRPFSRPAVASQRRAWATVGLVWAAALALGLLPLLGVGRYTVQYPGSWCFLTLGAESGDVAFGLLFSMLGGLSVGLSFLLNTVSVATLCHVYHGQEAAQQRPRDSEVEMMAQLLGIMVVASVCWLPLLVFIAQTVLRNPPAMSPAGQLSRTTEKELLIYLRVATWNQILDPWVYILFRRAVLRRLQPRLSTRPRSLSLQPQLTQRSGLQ
Description: (b) a blood platelet aggregation test based on that described by Born (Nature, 1962, 194, 927-929) and involving:
(i) aggregating human, citrated, platelet-rich plasma by addition of the TXA2 mimetic agent U46619 so that a dose-response curve is generated;
(ii) generating a dose-response curve for U46619 stimulated platelet aggregation in the presence of increasing amounts of test compound (generally in the range 10^-5 M to 10^-10 M); and
(iii) calculating a KB value indicating potency of TXA2 antagonism for the test compound, averaged over several concentrations, from the calculated 50% response value for U46619 aggregation in the presence and absence of test compound; and
as §1

TXA2 [3] = molecular target: T2, TXA2 (Oryctolagus cuniculus, UniProt Q6WQI8); assay: Test (a): rabbit aortic strip model, TXA2 or U46619 as agonist; format: cell-based; conditions: rabbit aortic strip, ±0.05
T2 construct: functional contraction assay (pA2)
T2 sequence (Q6WQI8 1-233): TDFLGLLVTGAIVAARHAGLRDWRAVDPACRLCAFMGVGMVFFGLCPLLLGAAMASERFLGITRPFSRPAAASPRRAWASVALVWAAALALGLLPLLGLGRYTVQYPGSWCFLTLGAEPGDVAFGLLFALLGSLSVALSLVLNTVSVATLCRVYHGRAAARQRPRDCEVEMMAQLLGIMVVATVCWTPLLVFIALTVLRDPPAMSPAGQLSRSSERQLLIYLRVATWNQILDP
Protocol: (§2) (a) The rabbit aortic strip model devised by Piper and Vane (Nature, 1969, 223, 29-35) using as agonist a freshly prepared sample of TXA2, generated by addition of arachidonic acid (25 μg) to citrated, platelet rich rabbit plasma (250 μl ) and allowing the mixture to aggregate fully over 90 seconds before use; alternatively the TXA2 mimetic agent known as U46619 (described by R. L. Jones et alia in "Chemistry, Biochemistry and Pharmacological Activity of Prostanoids" edited by S. M. Roberts and F. Scheinmann, at page 211; Pergamon Press, 1979) may be used as the agonist;
as §1

[4] = test system: U46619 induced hypertension; assay: Test (d): U46619 induced hypertension in anaesthetised rats; format: in vivo, rat (Alderley Park strain)
Protocol: (d) Male rats (Alderley Park strain) are anaesthetised with sodium pentobarbital and blood pressure is monitored at the carotid artery. The TXA2 mimetic agent U46619 is administered intravenously via the jugular vein at 5 μg/kg to induce a 20-30 mmHg (2640-3940 pascal) increase in systolic blood pressure. The process is repeated twice to ensure adequacy of response. A test compound is then administered either intravenously (via the jugular vein) or orally (via a cannula) directly into the stomach and the animal is challenged with U46619, five minutes after dosing with test compound and then successively every ten minutes until the hypertensive effect of U46619 is no longer blocked.
Similarly, using test procedure (d) referred to above, the following representative results were obtained on inhibition of U46619 induced hypertension with the compounds of formula I referred to above: […]

TXA2 [5] = assay: TXA2 antagonist properties (test not specified; one or other of the standard tests); conditions: qualitative statement
Description: As stated earlier, the acids of formula I are antagonists of one or more of the actions of TXA2, for example certain of its actions on blood platelets, the vasculature and/or the lung.

[6] = molecular target: T3, (Oryctolagus cuniculus, UniProt Q6WQI8); assay: Test (a): rabbit aortic strip model, TXA2 or U46619 as agonist; format: cell-based; conditions: comparison compound
T3 construct: functional contraction assay (pA2)
T3 sequence (Q6WQI8 1-233): T2 sequence (Q6WQI8 1-233)
Protocol: as §2, §1

[7] = 1 hour after oral dose of 0.5 mg/kg

Compound	dose ratio (U46619 bronchoconstriction) [1]	Kb [2] [nM]	pA2 (±0.05) (TXA2 [3])	inhibition of U46619 induced hypertension ([4]; 1 hour after oral dose of 0.1 mg/kg) [%]	inhibition of U46619 induced hypertension [4, 7] [%]	TXA2 antagonist properties (TXA2 [5])	pA2 [6]
CC(C)(C)[C@H]1OC[C@@H](C/C=C\CCC(=O)O)[C@@H](c2ccccc2O)O1 (relative stereo) [compound (ii), 4(Z)-6-([2,4,5-cis]-2-t-butyl-4-o-hydroxyphenyl-1,3-dioxan-5-yl)hexenoic acid]	> 110	13.1	7.86	> 75	–	–	–
CC(C)[C@H]1OC[C@@H](C/C=C\CCC(=O)O)[C@@H](c2ccccc2O)O1 (relative stereo) [compound (i), 4(Z)-6-([2,4,5-cis]-4-o-hydroxyphenyl-2-isopropyl-1,3-dioxan-5-yl)hexenoicacid]	> 75	17.9	7.71	–	> 70	–	–
CC(C)[C@H]1OC[C@@H](C/C=C\CCCC(=O)O)[C@@H](c2ccccc2)O1 (relative stereo) [5(Z)-7-([2,4,5-cis]-2-isopropyl-4-phenyl-1,3-dioxan-5-yl)heptenoic acid, reference compound]	–	–	–	–	–	signficantly lower TXA2 antagonist properties	5.9
CCC(C)C1OCC(CC=CCCC(=O)O)C(c2ccccc2O)O1 (stereo not drawn) [compound (iii), 4(Z)-6-([2,4,5-cis-]-2-sec-butyl-4-o-hydroxyphenyl-1,3-dioxan-5-yl)hexenoic acid]	> 75	13.4	7.80	–	> 70	–	–
